{"source": "paper PMC7156458", "about": "“Synthetic biology based construction of biological activity-related library of fungal decalin-containing diterpenoid pyrones” (Nature Communications, 2020)", "target": "Aβ42 (Homo sapiens, UniProt P05067)", "sequence (P05067 672-713)": "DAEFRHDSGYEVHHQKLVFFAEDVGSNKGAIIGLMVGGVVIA", "experiment": "Th-T (thioflavin-T) assay of Aβ42 aggregation", "format": "biochemical", "settings": "for Th-T fluorescence of Aβ42 with compound, mean of three wells (Fig. 7a source data): concentration 50, unit not given", "data": [{"smiles": "C=C1CC[C@@H]2[C@](C)(CC[C@H]3O[C@H](C=C(C)C)C[C@@]23C)[C@@H]1Cc1c(OC)oc(CO)c(C(=O)OC)c1=O", "note": "[Compound 21]", "values": [{"measurement": "Th-T fluorescence of Aβ42 with compound, mean of three wells (Fig. 7a source data)", "setting": "time-course reading M143", "result": 0.5052}, {"measurement": "Th-T fluorescence of Aβ42 with compound, mean of three wells (Fig. 7a source data)", "setting": "time-course reading M144", "result": 0.5053}, {"measurement": "Th-T fluorescence of Aβ42 with compound, mean of three wells (Fig. 7a source data)", "setting": "time-course reading M145", "result": 0.5045}, {"measurement": "Th-T fluorescence of Aβ42 (sheet Fig. 7a), mean of three wells", "setting": "head suffix _10 (concentration 10), reading M63", "result": 0.5289}, {"measurement": "Th-T fluorescence of Aβ42 (sheet Fig. 7a), mean of three wells", "setting": "head suffix _10 (concentration 10), reading M64", "result": 0.6173}, {"measurement": "Th-T fluorescence of Aβ42 (sheet Fig. 7a), mean of three wells", "setting": "head suffix _10 (concentration 10), reading M65", "result": 0.6561}, {"measurement": "Th-T fluorescence of Aβ42 (sheet Fig. 7a), mean of three wells", "setting": "head suffix _10 (concentration 10), reading M66", "result": 0.6931}, {"measurement": "Th-T fluorescence of Aβ42 (sheet Fig. 7a), mean of three wells", "setting": "head suffix _10 (concentration 10), reading M67", "result": 0.7435}, {"measurement": "Th-T fluorescence of Aβ42 (sheet Fig. 7a), mean of three wells", "setting": "head suffix _10 (concentration 10), reading M68", "result": 0.7523}, {"measurement": "Th-T fluorescence of Aβ42 (sheet Fig. 7a), mean of three wells", "setting": "head suffix _10 (concentration 10), reading M69", "result": 0.7892}, {"measurement": "Th-T fluorescence of Aβ42 (sheet Fig. 7a), mean of three wells", "setting": "head suffix _10 (concentration 10), reading M70", "result": 0.7946}, {"measurement": "Th-T fluorescence of Aβ42 (sheet Fig. 7a), mean of three wells", "setting": "head suffix _10 (concentration 10), reading M71", "result": 0.8033}, {"measurement": "Th-T fluorescence of Aβ42 (sheet Fig. 7a), mean of three wells", "setting": "head suffix _10 (concentration 10), reading M72", "result": 0.7933}, {"measurement": "Th-T fluorescence of Aβ42 (sheet Fig. 7a), mean of three wells", "setting": "head suffix _10 (concentration 10), reading M73", "result": 0.8223}, {"measurement": "Th-T fluorescence of Aβ42 (sheet Fig. 7a), mean of three wells", "setting": "head suffix _10 (concentration 10), reading M74", "result": 0.8738}, {"measurement": "Th-T fluorescence of Aβ42 (sheet Fig. 7a), mean of three wells", "setting": "head suffix _10 (concentration 10), reading M75", "result": 0.8711}, {"measurement": "Th-T fluorescence of Aβ42 (sheet Fig. 7a), mean of three wells", "setting": "head suffix _10 (concentration 10), reading M76", "result": 0.921}, {"measurement": "Th-T fluorescence of Aβ42 (sheet Fig. 7a), mean of three wells", "setting": "head suffix _10 (concentration 10), reading M77", "result": 0.9791}, {"measurement": "Th-T fluorescence of Aβ42 (sheet Fig. 7a), mean of three wells", "setting": "head suffix _10 (concentration 10), reading M78", "result": 1.0381}, {"measurement": "Th-T fluorescence of Aβ42 (sheet Fig. 7a), mean of three wells", "setting": "head suffix _10 (concentration 10), reading M79", "result": 1.098}, {"measurement": "Th-T fluorescence of Aβ42 (sheet Fig. 7a), mean of three wells", "setting": "head suffix _10 (concentration 10), reading M80", "result": 1.155}, {"measurement": "Th-T fluorescence of Aβ42 (sheet Fig. 7a), mean of three wells", "setting": "head suffix _10 (concentration 10), reading M81", "result": 1.227}, {"measurement": "Th-T fluorescence of Aβ42 (sheet Fig. 7a), mean of three wells", "setting": "head suffix _10 (concentration 10), reading M82", "result": 1.285}, {"measurement": "Th-T fluorescence of Aβ42 (sheet Fig. 7a), mean of three wells", "setting": "head suffix _10 (concentration 10), reading M83", "result": 1.378}, {"measurement": "Th-T fluorescence of Aβ42 (sheet Fig. 7a), mean of three wells", "setting": "head suffix _10 (concentration 10), reading M84", "result": 1.428}, {"measurement": "Th-T fluorescence of Aβ42 (sheet Fig. 7a), mean of three wells", "setting": "head suffix _20 (concentration 20), reading M63", "result": 0.2431}, {"measurement": "Th-T fluorescence of Aβ42 (sheet Fig. 7a), mean of three wells", "setting": "head suffix _20 (concentration 20), reading M64", "result": 0.2464}, {"measurement": "Th-T fluorescence of Aβ42 (sheet Fig. 7a), mean of three wells", "setting": "head suffix _20 (concentration 20), reading M65", "result": 0.2511}, {"measurement": "Th-T fluorescence of Aβ42 (sheet Fig. 7a), mean of three wells", "setting": "head suffix _20 (concentration 20), reading M66", "result": 0.2535}, {"measurement": "Th-T fluorescence of Aβ42 (sheet Fig. 7a), mean of three wells", "setting": "head suffix _20 (concentration 20), reading M67", "result": 0.2562}, {"measurement": "Th-T fluorescence of Aβ42 (sheet Fig. 7a), mean of three wells", "setting": "head suffix _20 (concentration 20), reading M68", "result": 0.2616}, {"measurement": "Th-T fluorescence of Aβ42 (sheet Fig. 7a), mean of three wells", "setting": "head suffix _20 (concentration 20), reading M69", "result": 0.2677}, {"measurement": "Th-T fluorescence of Aβ42 (sheet Fig. 7a), mean of three wells", "setting": "head suffix _20 (concentration 20), reading M70", "result": 0.2739}, {"measurement": "Th-T fluorescence of Aβ42 (sheet Fig. 7a), mean of three wells", "setting": "head suffix _20 (concentration 20), reading M71", "result": 0.2831}, {"measurement": "Th-T fluorescence of Aβ42 (sheet Fig. 7a), mean of three wells", "setting": "head suffix _20 (concentration 20), reading M72", "result": 0.2882}, {"measurement": "Th-T fluorescence of Aβ42 (sheet Fig. 7a), mean of three wells", "setting": "head suffix _20 (concentration 20), reading M73", "result": 0.2974}, {"measurement": "Th-T fluorescence of Aβ42 (sheet Fig. 7a), mean of three wells", "setting": "head suffix _20 (concentration 20), reading M74", "result": 0.3106}, {"measurement": "Th-T fluorescence of Aβ42 (sheet Fig. 7a), mean of three wells", "setting": "head suffix _20 (concentration 20), reading M75", "result": 0.3227}, {"measurement": "Th-T fluorescence of Aβ42 (sheet Fig. 7a), mean of three wells", "setting": "head suffix _20 (concentration 20), reading M76", "result": 0.3296}, {"measurement": "Th-T fluorescence of Aβ42 (sheet Fig. 7a), mean of three wells", "setting": "head suffix _20 (concentration 20), reading M77", "result": 0.3505}, {"measurement": "Th-T fluorescence of Aβ42 (sheet Fig. 7a), mean of three wells", "setting": "head suffix _20 (concentration 20), reading M78", "result": 0.3679}, {"measurement": "Th-T fluorescence of Aβ42 (sheet Fig. 7a), mean of three wells", "setting": "head suffix _20 (concentration 20), reading M79", "result": 0.3859}, {"measurement": "Th-T fluorescence of Aβ42 (sheet Fig. 7a), mean of three wells", "setting": "head suffix _20 (concentration 20), reading M80", "result": 0.4085}, {"measurement": "Th-T fluorescence of Aβ42 (sheet Fig. 7a), mean of three wells", "setting": "head suffix _20 (concentration 20), reading M81", "result": 0.4348}, {"measurement": "Th-T fluorescence of Aβ42 (sheet Fig. 7a), mean of three wells", "setting": "head suffix _20 (concentration 20), reading M82", "result": 0.4734}, {"measurement": "Th-T fluorescence of Aβ42 (sheet Fig. 7a), mean of three wells", "setting": "head suffix _20 (concentration 20), reading M83", "result": 0.5074}, {"measurement": "Th-T fluorescence of Aβ42 (sheet Fig. 7a), mean of three wells", "setting": "head suffix _20 (concentration 20), reading M84", "result": 0.5384}, {"measurement": "Th-T fluorescence of Aβ42 (sheet Fig. 7a), mean of three wells", "setting": "head suffix _50 (concentration 50), reading M63", "result": 0.2314}, {"measurement": "Th-T fluorescence of Aβ42 (sheet Fig. 7a), mean of three wells", "setting": "head suffix _50 (concentration 50), reading M64", "result": 0.2365}, {"measurement": "Th-T fluorescence of Aβ42 (sheet Fig. 7a), mean of three wells", "setting": "head suffix _50 (concentration 50), reading M65", "result": 0.2406}, {"measurement": "Th-T fluorescence of Aβ42 (sheet Fig. 7a), mean of three wells", "setting": "head suffix _50 (concentration 50), reading M66", "result": 0.2402}, {"measurement": "Th-T fluorescence of Aβ42 (sheet Fig. 7a), mean of three wells", "setting": "head suffix _50 (concentration 50), reading M67", "result": 0.2439}, {"measurement": "Th-T fluorescence of Aβ42 (sheet Fig. 7a), mean of three wells", "setting": "head suffix _50 (concentration 50), reading M68", "result": 0.2485}, {"measurement": "Th-T fluorescence of Aβ42 (sheet Fig. 7a), mean of three wells", "setting": "head suffix _50 (concentration 50), reading M69", "result": 0.2533}, {"measurement": "Th-T fluorescence of Aβ42 (sheet Fig. 7a), mean of three wells", "setting": "head suffix _50 (concentration 50), reading M70", "result": 0.2583}, {"measurement": "Th-T fluorescence of Aβ42 (sheet Fig. 7a), mean of three wells", "setting": "head suffix _50 (concentration 50), reading M71", "result": 0.2613}, {"measurement": "Th-T fluorescence of Aβ42 (sheet Fig. 7a), mean of three wells", "setting": "head suffix _50 (concentration 50), reading M72", "result": 0.2693}]}]}
